Measurements from ChEMBL document CHEMBL1131884, “Dicationic 2-fluorenonylcarbapenems: potent anti-MRS agents with improved solubility and pharmacokinetic properties” (Bioorg Med Chem Lett, 1999).
pIC50: −log10 of the molar value. Converted amounts (≈) assume the structure as drawn.

Legend:
Streptococcus pyogenes = assay: Antibacterial activity against Streptococcus pyogenes; assay type: functional
MecA = target: T1, MecA (Staphylococcus aureus, UniProt Q7DHH4); assay: Binding affinity against PBP2a receptor by competition analysis with [3H]benzylpenicillin using cell membrane fractions from the MRSA COL strain.
T1 sequence (Q7DHH4 whole entry): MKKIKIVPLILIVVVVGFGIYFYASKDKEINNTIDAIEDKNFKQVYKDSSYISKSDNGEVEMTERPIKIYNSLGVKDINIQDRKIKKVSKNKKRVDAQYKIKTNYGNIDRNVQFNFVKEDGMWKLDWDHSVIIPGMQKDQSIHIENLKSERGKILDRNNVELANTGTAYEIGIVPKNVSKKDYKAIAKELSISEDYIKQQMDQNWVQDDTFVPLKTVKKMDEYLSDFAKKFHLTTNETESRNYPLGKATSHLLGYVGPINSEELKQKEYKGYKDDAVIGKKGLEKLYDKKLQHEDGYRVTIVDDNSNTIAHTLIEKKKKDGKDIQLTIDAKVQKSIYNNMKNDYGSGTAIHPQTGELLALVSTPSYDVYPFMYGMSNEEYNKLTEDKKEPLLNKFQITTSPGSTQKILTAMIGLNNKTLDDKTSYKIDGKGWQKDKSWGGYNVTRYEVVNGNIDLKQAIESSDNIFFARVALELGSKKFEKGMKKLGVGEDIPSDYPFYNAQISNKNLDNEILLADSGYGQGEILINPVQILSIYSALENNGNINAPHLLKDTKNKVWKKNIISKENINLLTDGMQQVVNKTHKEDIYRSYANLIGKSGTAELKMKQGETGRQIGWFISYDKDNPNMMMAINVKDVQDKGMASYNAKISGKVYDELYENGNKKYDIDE

Enterococcus faecium = assay: Antibacterial activity against vancomycin-resistant Enterococcal faecium strain; assay type: functional
Streptococcus pneumoniae = assay: Antibacterial activity against penicillin-resistant Streptococcus pneumoniae; assay type: functional
Mus musculus [1] = assay: In vivo antibacterial activity against MSSA MB 2985 strain at the dose ~4 *10e7 cfu in brain heart broth along with antibiotic by sc administration at 0 hour in mice; assay type: functional
[2] = target: T2, Dipeptidase 1 (Sus scrofa) (UniProt P22412); assay: Susceptibility to mammalian dehydropeptidas, DHP-1(Porcine)
T2 sequence (whole entry): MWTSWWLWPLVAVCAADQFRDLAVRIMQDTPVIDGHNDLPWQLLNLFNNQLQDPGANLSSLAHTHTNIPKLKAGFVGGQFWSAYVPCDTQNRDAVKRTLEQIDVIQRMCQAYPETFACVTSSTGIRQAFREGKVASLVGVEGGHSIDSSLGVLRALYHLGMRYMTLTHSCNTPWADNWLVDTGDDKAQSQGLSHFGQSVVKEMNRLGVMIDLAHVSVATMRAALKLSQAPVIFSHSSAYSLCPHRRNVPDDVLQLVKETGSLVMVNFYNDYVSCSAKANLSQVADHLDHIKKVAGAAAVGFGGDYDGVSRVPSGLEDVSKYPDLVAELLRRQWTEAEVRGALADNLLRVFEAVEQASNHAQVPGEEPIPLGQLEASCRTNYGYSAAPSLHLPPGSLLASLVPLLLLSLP

[3] = Glomerular Filtration Rate(GFR) evaluated in Rhesus monkeys at the dose of 10 mg/kg by iv bolus injection; assay type: ADME, organism-based; design: dose 10 mg/kg, route intravenous; conditions: cercopithecidae, in vivo
Enterococcus faecalis [4] = assay: Antibacterial activity against vancomycin-resistant Enterococcus faecalis strain; assay type: functional
[5] = Renal clearance evaluated in Rhesus monkeys at the dose of 10 mg/kg by iv bolus injection; assay type: ADME, organism-based, Kidney; design: dose 10 mg/kg, route intravenous; conditions: cercopithecidae, in vivo, read-out: Renal clearance
Mus musculus [6] = assay: In vivo antibacterial activity against MRSA 76 virginia strain at the dose ~1 *10e7 cfu in 5 percent hog gastric mucin along with antibiotic by sc administration at 0 and +4 hrs in mice; assay type: functional
[7] = AUC (area under curve) evaluated in Rhesus monkeys at the dose of 10 mg/kg by iv bolus injection; assay type: ADME, organism-based, Plasma; design: dose 10 mg/kg, route intravenous; conditions: cercopithecidae, plasma, read-out: AUC
[8] = Plasma clearance evaluated in Rhesus monkeys at the dose of 10 mg/kg by iv bolus injection; assay type: ADME, organism-based; design: dose 10 mg/kg, route intravenous; conditions: cercopithecidae
Staphylococcus sp. = assay: Antibacterial activity against methicillin-resistant coagulase negative Staphylococci (MRCNS); assay type: functional
Enterococcus faecalis [9] = assay: Antibacterial activity against Enterococcus faecalis; assay type: functional
Staphylococcus aureus [10] = assay: Antibacterial activity against MSSA (Methicillin-sensitive Staphylococcus aureus); assay type: functional
Bacteria = assay: Antibacterial activity against Gram negative bacteria; assay type: functional
Staphylococcus aureus [11] = assay: Antibacterial activity against methicillin-resistant Staphylococcus aureus (MRSA); assay type: functional
[12] = Half life evaluated in Rhesus monkeys at the dose of 10 mg/kg by iv bolus injection; assay type: ADME, organism-based; design: dose 10 mg/kg, route intravenous; conditions: cercopithecidae, in vivo, read-out: Beta t1/2 (converted)
Mus musculus [13] = assay: In vivo antibacterial activity against MSSA MB 2985 strain at the dose ~4 *10e7 cfu in brain heart broth along with antibiotic by administration at 0 hour in mice; assay type: functional
[14] = Renal clearance compared to Cilastatin evaluated in Rhesus monkeys at the dose of 10 mg/kg by iv bolus injection; assay type: ADME, organism-based, Kidney; design: dose 10 mg/kg, route intravenous; conditions: cercopithecidae, in vivo, read-out: Renal clearance
[15] = Plasma clearance compared to Cilastatin evaluated in Rhesus monkeys at the dose of 10 mg/kg by iv bolus injection; assay type: ADME, organism-based; design: dose 10 mg/kg, route intravenous; conditions: cercopithecidae
[16] = Urinary recovery compared to Cilastatin evaluated in Rhesus monkeys at the dose of 10 mg/kg by iv bolus injection; assay type: ADME, organism-based, Urine; design: dose 10 mg/kg, route intravenous; conditions: cercopithecidae, in vivo
[17] = AUC (area under curve) compared to Cilastatin evaluated in Rhesus monkeys at the dose of 10 mg/kg by iv bolus injection; assay type: ADME, organism-based; design: dose 10 mg/kg, route intravenous; conditions: cercopithecidae, plasma
[18] = Half life compared to Cilastatin evaluated in Rhesus monkeys at the dose of 10 mg/kg by iv bolus injection; assay type: ADME, organism-based; design: dose 10 mg/kg, route intravenous; conditions: cercopithecidae, in vivo, read-out: Beta t1/2 (converted)
[19] = Glomerular Filtration Rate(GFR)of the compound compared to Cilastatin evaluated in Rhesus monkeys at the dose of 10 mg/kg by iv bolus injection; assay type: ADME, organism-based; design: dose 10 mg/kg, route intravenous; conditions: cercopithecidae, in vivo

| SMILES | MIC (Streptococcus pyogenes) [µg/mL] | pIC50 (MecA) | MIC (Enterococcus faecium) [µg/mL] | MIC (Streptococcus pneumoniae) [µg/mL] | ED50 (Mus musculus [1]) [mg/kg] | MIC (Enterococcus faecalis [4]) [µg/mL] | ED50 (Mus musculus [6]) [mg kg-1 dose-1] | MIC (Mus musculus [6]) [µg/mL] | MIC50 (Staphylococcus sp.) [µg/mL] | MIC90 (Staphylococcus sp.) [µg/mL] | MIC (Bacteria) [µg/mL] | MIC50 (Staphylococcus aureus [11]) [µg/mL] | MIC90 (Staphylococcus aureus [11]) [µg/mL] | MIC (Mus musculus [13]) [µg/mL] | further results |
| --- | --- | --- | --- | --- | --- | --- | --- | --- | --- | --- | --- | --- | --- | --- | --- |
| C[C@@H](O)[C@H]1C(=O)N2C(C(=O)[O-])=C(c3ccc4c(c3)-c3ccc(C[n+]5ccn(C)c5)cc3C4=O)C[C@H]12 | < 0.031 | 5.97 | 4 (≈ 8.52 µM) | < 0.03 | 0.034 | 1 (≈ 2.13 µM) | 0.92 | 1 (≈ 2.13 µM) | 2 (≈ 4.26 µM) | 4 (≈ 8.52 µM) | 1.37 (≈ 2.92 µM) | 1 (≈ 2.13 µM) | 2 (≈ 4.26 µM) | 0.008 (≈ 0.017 µM) | Rate of hydrolysis [2]: 0.078; GFR [3]: 3.19 mL/min/kg; CL renal [5]: 2.34 mL/min/kg; AUC [7]: 30400 ng·h/mL; clearance [8]: 5.56 mL/min/kg; MIC (Enterococcus faecalis [9]): 0.125 µg/mL (≈ 0.266 µM); MIC (Staphylococcus aureus [10]): 0.03 µg/mL (≈ 0.0639 µM); half-life [12]: 1.17 h |
| CN[C@H](CC(C)C)C(=O)N[C@H]1C(=O)N[C@@H](CC(N)=O)C(=O)N[C@H]2C(=O)N[C@H]3C(=O)N[C@H](C(=O)N[C@H](C(=O)O)c4cc(O)cc(O)c4-c4cc3ccc4O)[C@H](O)c3ccc(c(Cl)c3)Oc3cc2cc(c3O[C@@H]2O[C@H](CO)[C@@H](O)[C@H](O)[C@H]2O[C@H]2C[C@](C)(N)[C@H](O)[C@H](C)O2)Oc2ccc(cc2Cl)[C@H]1O [VANCOMYCIN] | 0.25 (≈ 0.173 µM) |  | > 64 | 0.25 (≈ 0.173 µM) | 3.7 | 32 (≈ 22.1 µM) | 2.33 | 1 (≈ 0.69 µM) | 4 (≈ 2.76 µM) | 4 (≈ 2.76 µM) | > 64 | 1 (≈ 0.69 µM) | 2 (≈ 1.38 µM) | 1 (≈ 0.69 µM) |  |
| C[C@@H](O)[C@H]1C(=O)N2C(C(=O)O)=C(SCCN=CN)C[C@H]12 [IMIPENEM ANHYDROUS] |  | 3.48 |  |  |  |  |  |  |  |  |  |  |  |  | CL renal [14]: 5.44 mL/min/kg; clearance [15]: 6.72 mL/min/kg; Urinary recovery [16]: 82; AUC [17]: 24800 ng·h/mL; half-life [18]: 0.6 h; GFR [19]: 2.98 mL/min/kg |
| C[C@@H](O)[C@H]1C(=O)N2C(C(=O)O)=C(SCCNC=N)C[C@H]12 [IMIPENEM ANHYDROUS] | < 0.031 |  | > 64 | 0.35 (≈ 1.17 µM) | 0.021 | 8 (≈ 26.7 µM) | 15.7 | 64 (≈ 214 µM) | 128 (≈ 428 µM) | 256 (≈ 855 µM) | 0.45 (≈ 1.5 µM) | 64 (≈ 214 µM) | 128 (≈ 428 µM) | 0.008 (≈ 0.0267 µM) | Rate of hydrolysis [2]: 1; MIC (Enterococcus faecalis [9]): 2 µg/mL (≈ 6.68 µM); MIC (Staphylococcus aureus [10]): 0.03 µg/mL (≈ 0.1 µM) |
| CC[N+]12CC[N+](Cc3ccc4c(c3)C(=O)c3ccc(C5=C(C(=O)O)N6C(=O)[C@H]([C@@H](C)O)[C@H]6C5)cc3-4)(CC1)CC2.[Cl-].[Cl-] |  | 6.38 |  |  |  |  |  |  | 2 | 4 |  | 2 | 4 |  |  |
| C[C@@H](O)[C@H]1C(=O)N2C(C(=O)[O-])=C(c3ccc4c(c3)-c3ccc(C[N+]56CC[N+](CC(N)=O)(CC5)CC6)cc3C4=O)[C@H](C)[C@H]12.[Cl-] | < 0.031 | 5.88 | 8 | 0.24 | 0.021 | 8 | 1 | 2 | 4 | 8 | 3.6 | 4 | 4 | 0.031 | Rate of hydrolysis [2]: 0.021; GFR [3]: 3.48 mL/min/kg; CL renal [5]: 2.72 mL/min/kg; AUC [7]: 56400 ng·h/mL; clearance [8]: 2.95 mL/min/kg; MIC (Enterococcus faecalis [9]): 0.5 µg/mL; MIC (Staphylococcus aureus [10]): 0.03 µg/mL; half-life [12]: 1.35 h |
| CCC[N+]12CC[N+](Cc3ccc4c(c3)C(=O)c3ccc(C5=C(C(=O)O)N6C(=O)[C@H]([C@@H](C)O)[C@H]6[C@H]5C)cc3-4)(CC1)CC2.[Cl-].[Cl-] |  | 6.04 |  |  |  |  |  |  | 4 | 8 |  | 4 | 4 |  |  |
| C[C@@H](O)[C@H]1C(=O)N2C(C(=O)O)=C(c3ccc4c(c3)-c3ccc(C[N+]56CC[N+](CCO)(CC5)CC6)cc3C4=O)[C@H](C)[C@H]12.[Cl-].[Cl-] |  | 5.99 |  |  |  |  |  |  | 4 | 8 |  | 4 | 4 |  |  |
| C[C@@H](O)[C@H]1C(=O)N2C(C(=O)O)=C(c3ccc4c(c3)-c3ccc(C[N+]56CC[N+](CC(=O)Nc7ccc(CO)cc7)(CC5)CC6)cc3C4=O)[C@H](C)[C@H]12.[Cl-].[Cl-] |  | 5.57 |  |  |  |  |  |  | 1 | 4 |  | 1 | 2 |  |  |
| C[C@@H](O)[C@H]1C(=O)N2C(C(=O)O)=C(c3ccc4c(c3)-c3ccc(C[N+]56CC[N+](CC(=O)Nc7cccc(CO)c7)(CC5)CC6)cc3C4=O)[C@H](C)[C@H]12.[Cl-].[Cl-] |  | 5.80 |  |  |  |  |  |  | 1 | 4 |  | 1 | 2 |  |  |
| C[C@@H](O)[C@H]1C(=O)N2C(C(=O)O)=C(c3ccc4c(c3)-c3ccc(C[N+]56CC[N+](CC(=O)N(C)c7ccccc7)(CC5)CC6)cc3C4=O)[C@H](C)[C@H]12.[Cl-].[Cl-] |  | 5.91 |  |  |  |  |  |  | 8 | 16 |  | 4 | 4 |  |  |
